Entries after “also recorded” stand apart in the source; their conditions may differ.
B1: PrfA wild type (transcriptional activator PrfA of Listeria monocytogenes) (natural protein)
chain: MNAQAEEFKKYLETNGIKPKQFHKKELIFNQWDPQEYCIFLYDGITKLTSISENGTIMNLQYYKGAFVIMSGFIDTETSVGYYNLEVISEQATAYVIKINELKELLSKNLTHFFYVFQTLQKQVSYSLAKFNDFSINGKLGSICGQLLILTYVYGKETPDGIKITLDNLTMQELGYSSGIAHSSAVSRIISKLKQEKVIVYKNSCFYVQNLDYLKRYAPKLDEWFYLACPATWGKLN
notes: also called PrfAWT; source: purified PrfA protein

Columns and labels:
PrfAWT = molecular target: T1, PrfAWT (Listeria monocytogenes serovar 1/2a, UniProt P22262); test: Isothermal titration calorimetry (ITC), binding to purified PrfAWT
T1 construct: followed by residues Glu7-N237; vector-derived N-terminal tail […]; (left after thrombin cleavage; inferred from pET28a and Ni-NTA capture), removed by thrombin (N, cleaved yes); made in house; host or cells: E. coli BL21(DE3)

[1] = system: intracellular ActA expression of L. monocytogenes in Caco-2 cells; test: Intracellular ActA levels in infected Caco-2 cells, compound added 30 min post infection; format: cell-based, Listeria monocytogenes; details: 100 μM added 30 min post infection, 4 hr post infection
Method: (§1) (D) Compound 2 abrogates intracellular induction of ActA expression. Caco-2 cells were infected with the indicated bacteria and treated 30 min post infection with 100 μM of 2 or the equivalent volume of DMSO (C). Total cellular protein was extracted at indicated time points after addition of compound and subjected to SDS-PAGE. The levels of ActA protein were visualized by western blot using a specific antibody.
ActA western blotting detection for intracellular bacteria: The collected bacterial pellets were resuspended in 100µl 1x sample buffer (Laemmli, 1970) and lysed by incubation at 98 °C for 20 min. 10µL of each sample was subjected to SDS-PAG and Western blotting using anti-ActA […]
Production of antibodies against ActA was conducted by Agrisera. The antibodies were raised in rabbits, against a peptide mix consisting of Y21T(Kocks et al., 1993) and (NH2-) […]
(-CONH2). The rabbits were immunized four times over a four month period, the first with FCA and the subsequent with FIA. The antisera was recovered 2 weeks after the last immunization.
Infection for determination of intracellular ActA levels
Caco-2 cells were seeded into 24 well plates (Corning #356408) and allowed to grow until confluent. Indicated bacterial strains were grown to OD600 = 1, added to CaCo-2 cells at a MOI of 10, centrifuged for 10 min at 800 g and allowed to infect for 30 minutes. […]

[2] = system: LLO and ActA expression in L. monocytogenes; test: Western blot of virulence protein levels (LLO, ActA, PrfA, P60), EGDe; format: cell-based, Listeria monocytogenes; details: for expression of LLO and ActA (protein): 100 μM; for PrfA expression (protein): across all concentrations
Method: as §1
A detailed procedure is provided in the Supplemental Experimental Procedures.
concentration of 0.1% DMSO. […] The
incubated on ice for 1 h.
washed in 80% ice cold acetone.
Subsequently the samples were centrifuged and the
added lysozyme and DNase.
secondary antibodies (Dako P0260).

[3] = system: L. monocytogenes carrying PrfAWT in Caco-2 cells; test: Time-course infection of Caco-2 cells, strain carrying PrfAWT; format: cell-based, Listeria monocytogenes; details: viable counts, 50 μM / 100 μM
Text: (§2) Figure 1 Ring-Fused 2-Pyridones Inhibit L. monocytogenes Uptake by Cultured Cells (A) Relative uptake (%) compared with control as determined by viable count measurements. […] All samples were correlated to the DMSO control (C, gray bar), which was arbitrarily set at 100%. Error bars show SDs. […] See also Figure S1. […] Error bars show SDs.

[4] = system: L. monocytogenes strain EGDe (WT) uptake by HeLa cells; format: cell-based, Listeria monocytogenes; details: 10 and 1 μM, viable count
Text: as §2

[5] = molecular target: T2, PrfAWT binding to hly-DNA (Listeria monocytogenes serovar 1/2a, UniProt P22262); test: SPR, binding of compound-pre-incubated PrfAWT to hly-promoter DNA; format: biochemical; details: 200 nM protein, 37°C, read-out: IC50, reduction of binding of PrfAWT to hly-DNA
T2 construct: followed by residues Glu7-N237; vector-derived N-terminal tail […]; (left after thrombin cleavage; inferred from pET28a and Ni-NTA capture), removed by thrombin (N, cleaved yes); made in house; host or cells: E. coli BL21(DE3)

[6] = system: L. monocytogenes strain F2365 uptake into Caco-2 cells; test: Uptake of L. monocytogenes strain F2365 into Caco-2 cells; format: cell-based, Listeria monocytogenes; details: 50 μM, 2 hr
Method: Protein extracts were isolated from indicated L. monocytogenes strain in the absence (C, equivalent volume DMSO) or presence of 100 μM of 1 and the specified proteins (LLO PrfA, or P60 (control)) were detected by western blot using specific antibodies. […] (B) Compound 2 inhibits the uptake of an L. monocytogenes strain of serovar 4b. L. monocytogenes strain F2365 was allowed to infect Caco-2 cells for 2 hr with 2 (50 μM). All samples were correlated to the DMSO-treated control (C, gray bar) which was arbitrarily set at 100%. Error bars show SDs.

crystal structure = molecular target: the molecule itself; test: crystal structure

Molecule | binding stoichiometry per monomer of homodimeric PrfA (PrfAWT) | induction of intracellular ActA levels [1] | expression of LLO and ActA (protein) [2] | PrfA expression (protein) [2] | concentration down to which LLO and ActA levels were decreased ([2]; dose dependent) | replication of L. monocytogenes (PrfAWT) within Caco-2 cells [3] | L. monocytogenes uptake relative to untreated controls [4] | IC50 [5] | uptake of the F2365 strain into Caco-2 cells [6] | stoichiometry N (crystal structure)
Cc1ccc(Cc2cc(=O)n3c(c2C2CC2)SC[C@H]3C(=O)O)c2ccccc12 [compound 2] | 1 to 1 | weakened in compound-treated cells, although not completely abolished | abolished | remained unchanged | ≤ 3.3 µM | inability of L. monocytogenes to replicate; also recorded: unable to replicate | reducing the level of L. monocytogenes uptake | 6 to 7 µM | effectively inhibited uptake | 
O=C(O)[C@@H]1CSc2c(C3CC3)c(Cc3cnc4ccccc4c3)cc(=O)n21 [compound 3] | 1 to 1 |  | did not reduce LLO or ActA expression | remained unchanged |  |  | consistently failed to attenuate uptake | ~30 µM |  | 
B1 |  |  |  |  |  |  |  |  |  | 2
